Reference: EP2246329A1, “4(1H)-pyridinone derivatives and their use as antimalaria agents” (Glaxo Group Limited, priority 2009, dated 2010)

What follows are molecules tested on Plasmodium falciparum (assay: In vitro anti-malarial activity against Plasmodium falciparum, IC50 assay / [3H]-Hypoxanthine incorporation assay). Settings: Erythrocyte; Plasmodium falciparum strains in parasitized red blood cells, [3H]-hypoxanthine incorporation, 48 hours at 37°C.
Assay type: cell-based
Procedure: The compounds of this invention may be tested in one of several biological assays to determine the concentration of compound which is required to have a given pharmacological effect. In vitro anti-malarial activity against Plasmodium falciparum. IC50 assay / [^3H]-Hypoxanthine assay
The culture medium comprised RPMI 1640 with 25mM HEPES, sodium bicarbonate and glutamine (GIBCO™ cat. ref.: 52400), supplemented with 10% of pooled human sera AB (Irvine Scientific, cat. ref.: 5009) and HT supplement (0.15 mM hypoxanthine and 24 µM thymidine), (GIBCO™ cat. ref.: 41065). Human sera were decomplemented 30 min. at 56°C, aliquoted and stored frozen at -20°C until use in this culture medium.
This culture medium ("complete medium") was usually prepared fresh just before use and pre-warmed to 37°C.
Red blood cells O+ stock suspensions were prepared from whole blood bags coming from incomplete blood donation, provided by the Spanish Red Cross (<25 days after sampling). This "whole blood" was aliquoted and stored at 4°C.
To prepare red blood cells for the assay, the whole blood was centrifuged and washed 3 times with RPMI without serum. The upper phase, containing white blood cells was removed. The washed red blood cells were kept as a 50 % suspension in complete medium. The prepared cells were stored at 4°C and were employed in the assay at any time up to 4 days after preparation.
Test compounds were dissolved at 2 mg/ml in 100% DMSO on the day of the assay. If necessary, complete dissolution was achieved by gentle heating (the mixture was heated at a temperature <37°C) and sonication (sonication bath).
For IC50 determinations, 10 serial 2-fold dilutions were prepared in complete medium in the presence of a constant amount of DMSO. Any obvious signs of insolubility of the stock solutions in 100% DMSO or precipitation when these solutions were diluted in assay media, were recorded.
Plasmodium falciparum strains were maintained in complete medium at an hematocrit of 5% in continuous culture using a method adapted from that published by Trager and Jensen(1) and Traeger(2).
The parasitemia was calculated by counting the percentage of parasitized erythrocytes by optical microscopy. Thin films of blood were made every day from each culture flask, fixed with methanol and stained for 10 min. in Giemsa (Merck, cat. ref.: 1.09204) at 10 % in buffered water pH 7.2. The glass slides were observed and counted with an optical microscope (Nikon, Eclipse E200) equipped with a 100 X immersion oil objective.
The culture was maintained at an hematocrit of 5%, with a daily change of medium and was diluted when parasitemia had reached about 5%.
[^3H] Hypoxanthine incorporation assay was conducted using a method adapted from Desjardins et al. (3). The assays were performed in 96 wells flat bottom microplates. • 1. Serial dilutions of the test compounds (50µl of a 5X solution / well) were deposited in duplicate. Compounds of the invention were tested in this assay. Chloroquine and Atovaquone were used as control compounds for each assay. • 2. […] [^3H]-Hypoxanthine (Amersham Biosciences, cat. ref.: TRK74) was added extemporaneously to the inoculum suspension at a concentration of 1 µCi/ml (equating to […]). 200 µl of the resulting suspension was distributed into each well (other than the control well H12 described below) leading to a final volume of 250 µl per well, at 2% of hematocrit and 0.5 % of parasitemia / well. • 4. […]

IC50, < 0.125 µg/mL:
Cc1[nH]c(C)c(-c2ccc(C#CCN(C)Cc3ccc(OC(F)(F)F)cc3)cc2)c(=O)c1Cl [Example 1, 3-Chloro-2,6-dimethyl-5-(4-{3-[methyl({4-[(trifluoromethyl)oxy]phenyl}methyl)amino]-1-propyn-1-yl}phenyl)-4(1H)-pyridinone]
Cc1[nH]c(C)c(-c2ccc(C#CCN(C)Cc3ccc(C(F)(F)F)cc3)cc2)c(=O)c1Cl [Example 2, 3-Chloro-2,6-dimethyl-5-{4-[3-(methyl{[4-(trifluoromethyl)phenyl]methyl}amino)-1-propyn-1-yl]phenyl}-4(1H)-pyridinone]
Cc1[nH]c(C)c(-c2ccc(C#CCN(C)Cc3ccccc3C(F)(F)F)cc2)c(=O)c1Cl [Example 3, 3-Chloro-2,6-dimethyl-5-{4-[3-(methyl{[2-(trifluoromethyl)phenyl]methyl}amino)-1-propyn-1-yl]phenyl}-4(1H)-pyridinone]
Cc1[nH]c(C)c(-c2ccc(C#CCN(C)Cc3ccc(C(F)(F)F)cc3C(F)(F)F)cc2)c(=O)c1Cl [Example 4, 3-(4-{3-[{[2,4-Bis(trifluoromethyl)phenyl]methyl}(methyl)amino]-1-propyn-1-yl}phenyl)-5-chloro-2,6-dimethyl-4(1H)-pyridinone]
CCCN(CC#Cc1ccc(-c2c(C)[nH]c(C)c(Cl)c2=O)cc1)Cc1ccc(OC(F)(F)F)cc1.O=C(O)C(F)(F)F [Example 6, 3-Chloro-2,6-dimethyl-5-(4-{3-[propyl({4-[(trifluoromethyl)oxy]phenyl}methyl)amino]-1-propyn-1-yl}phenyl)-4(1H)-pyridinone trifluoroacetate]
Cc1[nH]c(C)c(-c2ccc(C#CCNCc3ccc(OC(F)(F)F)cc3)cc2)c(=O)c1Cl [Example 8, 3-Chloro-2,6-dimethyl-5-(4-{3-[({4-[(trifluoromethyl)oxy]phenyl}methyl)amino]-1-propyn-1-yl}phenyl)-4(1H)-pyridinone]
COCCN(CC#Cc1ccc(-c2c(C)[nH]c(C)c(Cl)c2=O)cc1)Cc1ccc(OC(F)(F)F)cc1 [Example 9, 3-Chloro-2,6-dimethyl-5-(4-{3-[[2-(methyloxy)ethyl]({4-[(trifluoromethyl)oxy]phenyl}-methyl)amino]-1-propyn-1-yl}phenyl)-4(1H)-pyridinone]
Cc1[nH]c(C)c(-c2ccc(C#CCN3CCC(c4ccccc4)CC3)cc2)c(=O)c1Cl [Example 10, 3-Chloro-2,6-dimethyl-5-{4-[3-(4-phenyl-1-piperidinyl)-1-propyn-1-yl]phenyl}-4(1H)-pyridinone]
Cc1[nH]c(C)c(-c2ccc(C#CCN3CCC(c4ccc(OC(F)(F)F)cc4)CC3)cc2)c(=O)c1Cl.Cl [Example 11, 3-Chloro-2,6-dimethyl-5-{4-[3-(4-{4-[(trifluoromethyl)oxy]phenyl}-1-piperidinyl)-1-propyn-1-yl]phenyl}-4(1H)-pyridinone hydrochloride]
Cc1[nH]c(C)c(-c2ccc(C#CCN(Cc3ccccc3)Cc3ccccc3)cc2)c(=O)c1Cl.Cl [Example 12, 3-(4-{3-[Bis(phenylmethyl)amino]-1-propyn-1-yl}phenyl)-5-chloro-2,6-dimethyl-4(1H)-pyridinone hydrochloride]
Cc1[nH]c(C)c(-c2ccc(C#CCN3CCCCC3c3ccccc3)cc2)c(=O)c1Cl.Cl (centres unmarked) [Example 13, 3-Chloro-2,6-dimethyl-5-{4-[3-(2-phenyl-1-piperidinyl)-1-propyn-1-yl]phenyl}-4(1H)-pyridinone hydrochloride]
Cc1[nH]c(C)c(-c2ccc(C#CCN3CCc4cc(C(F)(F)F)ccc4C3)cc2)c(=O)c1Cl.Cl [Example 14, 3-Chloro-2,6-dimethyl-5-(4-(3-[6-(trifluoromethyl)-3,4-dihydro-2(1H)-isoquinolinyl]-1-propyn-1-yl}phenyl)-4(1H)-pyridinone hydrochloride]
Cc1[nH]c(C)c(-c2ccc(C#CCN3CCc4cccc(C(F)(F)F)c4C3)cc2)c(=O)c1Cl.Cl [Example 15, 3-Chloro-2,6-dimethyl-5-(4-{3-[8-(trifluoromethyl)-3,4-dihydro-2(1H)-isoquinolinyl]-1-propyn-1-yl}phenyl)-4(1H)-pyridinone hydrochloride]
Cc1[nH]c(C)c(-c2ccc(C#CCN(C)CCc3ccc(OC(F)(F)F)cc3)cc2)c(=O)c1Cl.Cl [Example 17, 3-Chloro-2,6-dimethyl-5-(4-{3-[methyl(2-{4-[(trifluoromethyl)oxy]phenyl}ethyl)amino]-1-propyn-1-yl}phenyl)-4(1H)-pyridinone hydrochloride]
Cc1[nH]c(C)c(-c2ccc(C#CCCN(C)Cc3ccc(OC(F)(F)F)cc3)cc2)c(=O)c1Cl.Cl [Example 18, 3-Chloro-2,6-dimethyl-5-(4-{4-[methyl({4-[(trifluoromethyl)oxy]phenyl}methyl)amino]-1-butyn-1-yl}phenyl)-4(1H)-pyridinone hydrochloride]
Cc1[nH]c(C)c(-c2ccc(C#CCN(C)Cc3ccc(OC(F)(F)F)cc3)cc2)c(=O)c1Cl.Cl [Example 19, 3-Chloro-2,6-dimethyl-5-(4-{3-[methyl({4-[(trifluoromethyl)oxy]phenyl}methyl)amino]-1-propyn-1-yl}phenyl)-4(1H)-pyridinone hydrochloride]
CCCN(CC#Cc1ccc(-c2c(C)[nH]c(C)c(Cl)c2=O)cc1)Cc1ccc(OC(F)(F)F)cc1 [Example 20, 3-Chloro-2,6-dimethyl-5-(4-{3-[propyl({4-[(trifluoromethyl)oxy]phenyl}methyl)amino]-1-propyn-1-yl}phenyl)-4(1H)-pyridinone]
CCCN(CC#Cc1ccc(-c2c(C)[nH]c(C)c(Cl)c2=O)cc1)Cc1ccc(OC(F)(F)F)cc1.Cl [Example 21, 3-Chloro-2,6-dimethyl-5-(4-{3-[propyl({4-[(trifluoromethyl)oxy]phenyl}methyl)amino]-1-propyn-1-yl}phenyl)-4(1H)-pyridinone hydrochloride]
Cc1[nH]c(C)c(-c2ccc(C#CCN3CCC(c4ccc(OC(F)(F)F)cc4)CC3)cc2)c(=O)c1Cl.O=C(O)C(F)(F)F [Example 22, 3-Chloro-2,6-dimethyl-5-{4-[3-(4-{4-[(trifluoromethyl)oxy]phenyl}-1-piperidinyl)-1-propyn-1-yl]phenyl}-4(1H)-pyridinone trifluoroacetate]
Cc1[nH]c(C)c(-c2ccc(CN(C)Cc3ccc(OC(F)(F)F)cc3)cc2)c(=O)c1Cl.Cl [Example 23, 3-Chloro-2,6-dimethyl-5-(4-{[methyl({4-[(trifluoromethyl)oxy]phenyl}methyl)amino]-methyl}phenyl)-4(1H)-pyridinone hydrochloride]
Cc1[nH]c(C)c(-c2ccc(CN3CCC(c4ccc(OC(F)(F)F)cc4)CC3)cc2)c(=O)c1Cl.Cl [Example 24, 3-Chloro-2,6-dimethyl-5-{4-[(4-{4-[(trifluoromethyl)oxy]phenyl}-1-piperidinyl)methyl]-phenyl}-4(1H)-pyridinone hydrochloride]
Cc1[nH]c(C)c(-c2cccc(CN(C)Cc3ccc(OC(F)(F)F)cc3)c2)c(=O)c1Cl.Cl [Example 25, 3-Chloro-2,6-dimethyl-5-(3-{[methyl({4-[(trifluoromethyl)oxy]phenyl}methyl)amino]-methyl}phenyl)-4(1H)-pyridinone hydrochloride]
Cc1[nH]c(C)c(-c2ccc(-c3ccc(CN(C)Cc4ccc(OC(F)(F)F)cc4)s3)cc2)c(=O)c1Cl.O=C(O)C(F)(F)F [Example 26, 3-Chloro-2,6-dimethyl-5-[4-(5-{[methyl({4-[(trifluoromethyl)oxy]phenyl}methyl)amino]-methyl}-2-thienyl)phenyl] -4(1H)-pyridinone trifluoroacetate]
